From ChEMBL document CHEMBL1201862, “PubChem BioAssay data set” (2004)
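Compound exposure: 48 hours, 5 concentrations, 96-well plates. At the GI50, growth is halved.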 Active and inactive are the calls of the source. Cut-off read from the data, not from the text of the source: active = GI50 up to about 1.1 µM and inactive = higher.

Key:
Experiment in all cases: NCI anticancer screen, dose series, 48 h
Hs-578T = test system: Hs-578T
NCI-H23 = test system: NCI-H23
RPMI-8226 = test system: RPMI-8226
SF-539 = test system: SF-539
HCT-116 = test system: HCT-116
MDA-N = test system: MDA-N
NCI-H226 = test system: NCI-H226
CCRF-CEM = test system: CCRF-CEM
OVCAR-4 = test system: OVCAR-4
K562 = test system: K562
OVCAR-8 = test system: OVCAR-8
786-0 = test system: 786-0
SK-MEL-5 = test system: SK-MEL-5
SNB-19 = test system: SNB-19
HOP-62 = test system: HOP-62
SF-268 = test system: SF-268
NCI/ADR-RES = test system: NCI/ADR-RES
NCI-H522 = test system: NCI-H522
IGROV-1 = test system: IGROV-1

Measured: GI50

CCOC(=O)c1cnc2oc3ccc(O)cc3c2c1-c1ccccc1
inactive: Hs-578T 20.6 µM | NCI-H23 32.7 µM | RPMI-8226 8.73 µM | SF-539 17.3 µM | HCT-116 57.8 µM | MDA-N 52.7 µM | NCI-H226 32.2 µM | CCRF-CEM 16.4 µM | OVCAR-4 24.4 µM | K562 17.6 µM | OVCAR-8 12.7 µM | 786-0 58.3 µM | SK-MEL-5 29.2 µM | SNB-19 52.4 µM

CCOc1cc(/C=C2\N=C(c3ccccc3)N(c3nc4ccccc4s3)C2=O)ccc1O
inactive: HOP-62 75 µM | SF-268 42 µM | Hs-578T 29 µM | NCI/ADR-RES 24.3 µM | NCI-H23 21.7 µM | RPMI-8226 21.6 µM | SF-539 50 µM | HCT-116 42.3 µM | NCI-H522 23.7 µM | MDA-N 31.3 µM | NCI-H226 59.8 µM | CCRF-CEM 34.3 µM | OVCAR-4 48.3 µM | IGROV-1 28.6 µM | K562 27.9 µM | OVCAR-8 34.7 µM | 786-0 61.1 µM | SK-MEL-5 18.5 µM

C[C@@H](c1ccccc1)N(CC#N)[C@H]1CCC[C@]1(O)/C=C/c1ccc2c(c1)OCO2
inactive: HOP-62 > 25 µM | SF-268 > 25 µM | Hs-578T > 25 µM | NCI/ADR-RES > 25 µM | NCI-H23 > 25 µM | RPMI-8226 > 25 µM | HCT-116 > 25 µM | NCI-H522 > 25 µM | MDA-N > 25 µM | NCI-H226 > 25 µM | CCRF-CEM > 25 µM | OVCAR-4 > 25 µM | IGROV-1 > 25 µM | K562 > 25 µM | OVCAR-8 > 25 µM | 786-0 > 25 µM | SK-MEL-5 > 25 µM | SNB-19 > 25 µM

CCOC(=O)c1cnc2oc(/C=N/N3CC(CN4CCOCC4)OC3=O)cc2c1O (stereo not drawn)
inactive: HOP-62 > 100 µM | SF-268 > 100 µM | Hs-578T > 100 µM | NCI/ADR-RES > 100 µM | NCI-H23 > 100 µM | RPMI-8226 > 100 µM | SF-539 > 100 µM | HCT-116 > 100 µM | MDA-N > 100 µM | NCI-H226 > 100 µM | CCRF-CEM > 100 µM | OVCAR-4 > 100 µM | IGROV-1 > 100 µM | K562 > 100 µM | OVCAR-8 > 100 µM | 786-0 > 100 µM | SK-MEL-5 > 100 µM | SNB-19 > 100 µM
